Measured values reported in patent US20260242390A1, “TOTAL SYNTHESES OF PORTIMINE A AND ANALOGUES THEREOF AS SMALL MOLECULE MODULATORS OF NMD3” (priority 2023, published 2026).

Tested on: Jurkat cells
Test: Cell cycle analysis, propidium iodide flow cytometry
Assay type: cell-based, human
Settings: for G2M/sub-G1 (mostly apoptotic cells) / S phase entry: Jurkat cells, 10 nM treatment, 24 hr
Procedure: FIG. 2. […] Cell cycle analysis in Jurkat cells. Jurkat cells were treated with 10 nM of indicated compounds for 24 hours, and propodium iodide was used to identify different stages of cells by flow cytometry.
FIG. 6. Portimine A inhibits S phase entry in Jurkat cells. Portimine A downregulates NMD3 at protein level but upregulates in mRNA level in cells, as well as some essential apoptosis proteins. […] Protein degradation of p53, Mcl1, Bid, Bim, Noxa can be rescued by MG132 or Epoxomicin. (B) NMD3 mRNA increased after PA treatment, but not ePA control compound. Jurkat cells were treated with indicated compounds for 24 hr; Cells were then fixed and perform Propidium Iodide staining.
• 1) Portimine A and its functional analogs show stereo-selective acute toxicity in cancer cells (FIG. 1). […] (B) Structure of portimine related analogs: phenyl-portimine A (Ph-PA, 36) and epi-portimine A (ePA, 38). Structure of fully functionalized portimine A-based epimeric probe pair: portimine A-diazirine-alkyne (PA-DA, 35-2) and epi-portimine A-diazirine-alkyne (ePA-DA, 35-1). (C) Cell viability analysis of portimine A and analogs. Jurkat cells were treated with increasing concentrations of portimine A and analogs for 24 hours. All presented data as mean of biological replicated experiments (n=3). […] Jurkat cells were treated with portimine A or analogs for 12 hours at 10 nM. […] Structurally related negative control ePA and PB are non-toxic in all cell types in the current concentrate range. PBMCs (25k per well), Jurkat (10k per well). […] Cell cycle analysis in Jurkat cells (FIG. 2). Jurkat cells were treated with 10 nM of indicated compounds for 24 hours, and propodium iodide was used to identify different stages of cells by flow cytometry. […] (A) PA and Ph-PA show less toxic to healthy PBMCs compared to Jurkat cells. […] (B) Immunoblot of caspase-3 in Jurkat and PBMCs with indicated conditions. […] (A) Pharmacokinetic studies of mouse intraperitoneal (i.p.) and oral (p.o.) administration for portimine (n=3). […] Impact of PA [0.3 or 1 mg/kg intraperitoneally] on MC38 tumor growth in WT mice (n=6). (C) Kaplan-Myer survival curve of WT MC38 tumor-bearing mice (n=6) after treatment with PA as described in (D). Mice were euthanized when tumor area exceeded 2000 mm^3. Statistical analysis was performed using ANOVA analysis followed by multiple comparisons test, * p≤0.05. Treatment condition: Jurkat (60 M per condition); PA-DA/ePA-DA concentration: 0.5 uM, PA or ePA: 5 uM; Incubate with probe with or without competitors (PA, ePA) for 30 min; UV irradiated for 20 min. (0.5 uM PA-DA add a no-UV condition), Standard pulldown & biotin-enrichment and western blot analysis (Elute condition: 2× sample buffer+500 uM biotin, boil for 20 mins); Primary antibody NMD3 (ProteinTech, 1:150), Actin (BioRad, 1:10000). […] Chemical proteomic profiling with PA-DA in Jurkat cells (A, B, C, G) and HCC1806 cells (D, E, F, H) show NMD3 is the primary target candidate of portimine A. Volcano plot in panels A and D show protein competition in cells treated with active photoaffinity probe PA-DA (500 nM) and DMSO or the active competitor portimine A (PA, […]), dotted lines indicate threshold of fold change <4, p-value>0.05. […] (I, J) Confirmation of PA-DA engagement of NMD3 in Jurkat and HCC1806 cells. […] Treatment condition: Jurkat (5M per well). Portimine A concentration: 2 nM-1000 nM; In total treat cell for 12 hours. […] Protein degradation of p53, Mcl1, Bid, Bim, Noxa can be rescued by MG132 or Epoxomicin. […]

SMILES | cell cycle arrest in Jurkat cells (10 nM, 24 hours) | G2M/sub-G1 (mostly apoptotic cells) | S phase entry
C=CC1=C[C@@H]2[C@@H]3O[C@]4(CC[C@H](O4)C(C)C[C@@H](O)C3=O)CC(O)C3=NCC[C@@]32CC1 (some centres unmarked) [PA, portimine A] | triggers cell cycle arrest | does not affect | inhibited
C#CCCC1(CCNC(=O)c2ccc(C3=C[C@@H]4[C@@H]5O[C@]6(CC[C@H](O6)C(C)C[C@@H](O)C5=O)CC(O)C5=NCC[C@@]54CC3)cc2)N=N1 (some centres unmarked) [PA-DA, portimine A-diazirine-alkyne] |  | does not affect | inhibited
